Assay results taken from patent US8952024B2, “Herbicidal pyrimidone derivatives” (E I du Pont de Nemours and Company, priority 2009, dated 2015).

Columns and labels:
Assay type in all cases: in vivo
corn (Zea mays) = test: Test A pre-/postemergence plant response
How it was run: (§1)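 Greenhouse pots of loam/sand received directed preemergence soil sprays or postemergence sprays (plants 2–10 cm, 1–2 leaf stage), compounds formulated in non-phytotoxic solvent with surfactant. Injury was rated visually versus untreated controls after about ten days on a 0 (no effect) to 100 (complete control) scale.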

[1] = test system: giant foxtail (Setaria faberii); test: Test A pre-/postemergence plant response
How it was run: as §1

[2] = test system: large crabgrass (Digitaria sanguinalis); test: Test A pre-/postemergence plant response
How it was run: as §1

[3] = test system: morningglory (Ipomoea spp.); test: Test A pre-/postemergence plant response
How it was run: as §1

[4] = test system: velvetleaf (Abutilon theophrasti); test: Test A pre-/postemergence plant response
How it was run: as §1

[5] = test system: wheat (Triticum aestivum); test: Test A pre-/postemergence plant response
How it was run: as §1

[6] = test system: galium (catchweed bedstraw, Galium aparine); test: Test B pre-/postemergence plant response; settings: Preemergence
How it was run: (§2)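 Seeds were sown in loam soil/sand blend and treated preemergence with compound in non-phytotoxic solvent mixture containing surfactant; postemergence sprays, same formulation, went onto plants 2 to 18 cm (1- to 4-leaf stage) in peat-based planting medium. Greenhouse 13 to 15 days, then visual rating versus untreated controls, 0 (no effect) to 100 (complete control).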

[7] = test system: nightshade (eastern black nightshade, Solanum ptycanthum); test: Test B pre-/postemergence plant response; settings: Preemergence
How it was run: as §2

[8] = test system: sunflower (common oilseed sunflower, Helianthus annuus); test: Test B pre-/postemergence plant response; settings: Preemergence
How it was run: as §2

[9] = test system: canarygrass (Phalaris minor); test: Test B postemergence plant response
How it was run: (§3)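 Plants at the 1- to 4-leaf stage (2 to 18 cm tall), grown in pots of peat moss/vermiculite medium with wetting agent and starter nutrients, received postemergence applications of test chemicals. After 13 to 15 days in a greenhouse, injury was rated visually against untreated controls on a 0 (no effect) to 100 (complete control) scale.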

[10] = test system: chickweed (Stellaria media); test: Test B postemergence plant response
How it was run: as §3

[11] = test system: windgrass (Apera spica-venti); test: Test B postemergence plant response
How it was run: as §3

[12] = test system: winter barley (Hordeum vulgare); test: Test B postemergence plant response
How it was run: as §3

[13] = Postemergence, 125 g ai/ha, visual injury, 0 to 100 scale (0 no effect, 100 complete control), approx. ten days
[14] = Postemergence, 500 g ai/ha, 0 to 100 scale, 0 = no effect, 100 = complete control, approx. ten days
[15] = Preemergence, 125 g ai/ha, 0 to 100 scale, 0 = no effect, 100 = complete control
[16] = Preemergence, 500 g ai/ha, visual injury, 0 to 100 scale (0 no effect, 100 complete control), approx. ten days
[17] = 31 g ai/ha, scale 0 to 100 (0 no effect, 100 complete control)
[18] = 62 g ai/ha, scale 0 to 100, 0 no effect, 100 complete control
[19] = 125 g ai/ha, scale 0 to 100, 0 no effect, 100 complete control
[20] = 31 g ai/ha, postemergence, scale 0 to 100, 0 is no effect, 100 is complete control
[21] = Postemergence, 62 g ai/ha, scale 0 (no effect) to 100 (complete control), 13 to 15 days
[22] = Postemergence, 125 g ai/ha, visual rating after 13 to 15 days, scale 0 (no effect) to 100 (complete control)
[23] = Postemergence, 250 g ai/ha, scale 0 to 100 (0 no effect, 100 complete control)
[24] = Postemergence, 1000 g ai/ha, 0 to 100 scale, 0 = no effect, 100 = complete control, approx. ten days
[25] = Preemergence, 1000 g ai/ha, visual injury, 0 to 100 scale (0 no effect, 100 complete control), approx. ten days
[26] = Postemergence, 31 g ai/ha, 0 to 100 scale (0 no effect, 100 complete control)
[27] = Postemergence, 125 g ai/ha, scale 0 to 100 (0 no effect, 100 complete control)
[28] = Postemergence, 250 g ai/ha, scale 0 to 100 (0 no effect, 100 complete control), 13 to 15 days
[29] = Postemergence, 62 g ai/ha, scale 0 to 100 (0 no effect, 100 complete control)
[30] = 16 g ai/ha, Postemergence, 0 to 100 scale
[31] = 62 g ai/ha, postemergence, 0 is no effect, 100 is complete control, 13 to 15 days

SMILES: Cc1cccc(-n2c(-c3ccccc3)ncc(C(=O)C3=C(O)CCCC3=O)c2=O)c1F [Compound 58]
- Corn plant response rating (corn (Zea mays); [13]): 0
- Plant response rating, Corn (corn (Zea mays); [14]): 20
- Plant response rating, Corn (corn (Zea mays); [15]): 0
- Plant response rating, Corn (corn (Zea mays); [16]): 0
- Foxtail, Giant plant response rating [1, 13]: 70
- Plant response rating, Foxtail, Giant [1, 14]: 90
- Plant response rating, Foxtail, Giant [1, 15]: 50
- Plant response rating, Foxtail, Giant [1, 16]: 80
- Crabgrass, Large plant response rating [2, 13]: 80
- Plant response rating, Crabgrass, Large [2, 14]: 90
- Plant response rating, Crabgrass, Large [2, 15]: 70
- Plant response rating, Crabgrass, Large [2, 16]: 90
- Morningglory plant response rating [3, 13]: 80
- Plant response rating, Morningglory [3, 14]: 100
- Plant response rating, Morningglory [3, 16]: 100
- Velvetleaf plant response rating [4, 13]: 100
- Plant response rating, Velvetleaf [4, 14]: 100
- Plant response rating, Velvetleaf [4, 15]: 70
- Plant response rating, Velvetleaf [4, 16]: 100
- Wheat plant response rating [5, 13]: 0
- Plant response rating, Wheat [5, 14]: 0
- Plant response rating, Wheat [5, 15]: 0
- Plant response rating, Wheat [5, 16]: 0
- Plant response rating, Galium ([6]; 250 g ai/ha, 0 to 100 scale): 80
- Plant response rating, Galium [6, 17]: 0
- Plant response rating, Galium [6, 18]: 0
- Plant response rating, Galium [6, 19]: 30
- Plant response rating, Nightshade [7, 17]: 90
- Plant response rating, Nightshade [7, 18]: 98
- Plant response rating, Nightshade [7, 19]: 98
- Plant response rating, Sunflower [8, 17]: 0
- Plant response rating, Sunflower [8, 18]: 55
- Plant response rating, Sunflower [8, 19]: 65
- Plant response rating, Canarygrass [9, 20]: 60
- Plant response rating, Canarygrass [9, 21]: 60
- Plant response rating, Canarygrass [9, 22]: 80
- Plant response rating, Canarygrass [9, 23]: 85
- Plant response rating, Chickweed [10, 20]: 70
- Plant response rating, Chickweed [10, 21]: 80
- Plant response rating, Chickweed [10, 22]: 90
- Plant response rating, Chickweed [10, 23]: 90
- Plant response rating, Windgrass [11, 20]: 35
- Plant response rating, Windgrass [11, 21]: 50
- Plant response rating, Windgrass [11, 22]: 60
- Plant response rating, Windgrass [11, 23]: 70
- Plant response rating, Barley [12, 20]: 5
- Plant response rating, Barley [12, 21]: 5
- Plant response rating, Barley [12, 22]: 5
- Plant response rating, Barley [12, 23]: 10

SMILES: CCCc1ncc(C(=O)C2=C(O)CCCC2=O)c(=O)n1-c1ccccc1 [Compound 217]
- Plant response rating, Corn (corn (Zea mays); [24]): 40
- Plant response rating, Corn (corn (Zea mays); [25]): 0
- Plant response rating, Foxtail, Giant [1, 24]: 80
- Plant response rating, Foxtail, Giant [1, 25]: 80
- Plant response rating, Crabgrass, Large [2, 24]: 100
- Plant response rating, Crabgrass, Large [2, 25]: 100
- Plant response rating, Morningglory [3, 24]: 100
- Plant response rating, Morningglory [3, 25]: 70
- Plant response rating, Velvetleaf [4, 24]: 100
- Plant response rating, Velvetleaf [4, 25]: 100
- Plant response rating, Wheat [5, 24]: 40
- Plant response rating, Wheat [5, 25]: 30
- Plant response rating, Galium [6, 17]: 0
- Plant response rating, Galium [6, 18]: 10
- Plant response rating, Galium [6, 19]: 70
- Galium plant response rating ([6]; 250 g ai/ha, 0 to 100 scale): 90
- Plant response rating, Nightshade [7, 17]: 95
- Plant response rating, Nightshade [7, 18]: 100
- Plant response rating, Nightshade [7, 19]: 100
- Nightshade plant response rating ([7]; 250 g ai/ha, 0 to 100 scale): 100
- Plant response rating, Sunflower [8, 17]: 70
- Plant response rating, Sunflower [8, 18]: 75
- Plant response rating, Sunflower [8, 19]: 85
- Sunflower plant response rating ([8]; 250 g ai/ha, 0 to 100 scale): 85
- Plant response rating, Canarygrass [9, 26]: 0
- Plant response rating, Canarygrass [9, 27]: 20
- Plant response rating, Canarygrass [9, 28]: 20
- Plant response rating, Canarygrass [9, 29]: 20
- Plant response rating, Chickweed [10, 26]: 75
- Plant response rating, Chickweed [10, 27]: 100
- Plant response rating, Chickweed [10, 28]: 100
- Plant response rating, Chickweed [10, 29]: 95
- Plant response rating, Windgrass [11, 26]: 50
- Plant response rating, Windgrass [11, 28]: 85
- Plant response rating, Windgrass [11, 29]: 50
- Plant response rating, Barley [12, 26]: 0
- Plant response rating, Barley [12, 27]: 10
- Plant response rating, Barley [12, 28]: 10
- Plant response rating, Barley [12, 29]: 5

SMILES: O=C1CCCC(O)=C1C(=O)c1cnc(-c2cccc(Br)c2)n(-c2ccccc2)c1=O [Compound 69]
- Corn plant response rating (corn (Zea mays); [13]): 20
- Plant response rating, Corn (corn (Zea mays); [14]): 40
- Plant response rating, Corn (corn (Zea mays); [15]): 0
- Plant response rating, Corn (corn (Zea mays); [16]): 0
- Foxtail, Giant plant response rating [1, 13]: 80
- Plant response rating, Foxtail, Giant [1, 14]: 90
- Plant response rating, Foxtail, Giant [1, 15]: 40
- Plant response rating, Foxtail, Giant [1, 16]: 70
- Crabgrass, Large plant response rating [2, 13]: 80
- Plant response rating, Crabgrass, Large [2, 14]: 100
- Plant response rating, Crabgrass, Large [2, 15]: 90
- Plant response rating, Crabgrass, Large [2, 16]: 100
- Morningglory plant response rating [3, 13]: 100
- Plant response rating, Morningglory [3, 14]: 100
- Plant response rating, Morningglory [3, 15]: 0
- Plant response rating, Morningglory [3, 16]: 50
- Velvetleaf plant response rating [4, 13]: 100
- Plant response rating, Velvetleaf [4, 14]: 100
- Plant response rating, Velvetleaf [4, 15]: 70
- Plant response rating, Velvetleaf [4, 16]: 100
- Wheat plant response rating [5, 13]: 0
- Plant response rating, Wheat [5, 14]: 10
- Plant response rating, Wheat [5, 15]: 0
- Plant response rating, Wheat [5, 16]: 10
- Plant response rating, Galium [6, 19]: 0
- Plant response rating, Nightshade ([7]; 16 g ai/ha, scale 0 to 100, 0 no effect, 100 complete control): 80
- Plant response rating, Nightshade [7, 17]: 95
- Plant response rating, Nightshade [7, 18]: 98
- Plant response rating, Nightshade [7, 19]: 98
- Plant response rating, Sunflower [8, 17]: 0
- Plant response rating, Sunflower [8, 18]: 0
- Plant response rating, Sunflower [8, 19]: 5
- Plant response rating, Canarygrass [9, 30]: 0
- Plant response rating, Canarygrass [9, 20]: 0
- Canarygrass plant response rating (0 to 100 scale) [9, 31]: 0
- Plant response rating, Canarygrass [9, 22]: 25
- Plant response rating, Chickweed [10, 30]: 95
- Plant response rating, Chickweed [10, 20]: 98
- Chickweed plant response rating (0 to 100 scale) [10, 31]: 98
- Plant response rating, Chickweed [10, 22]: 98
- Plant response rating, Windgrass [11, 30]: 40
- Plant response rating, Windgrass [11, 20]: 60
- Windgrass plant response rating (0 to 100 scale) [11, 31]: 60
- Plant response rating, Windgrass [11, 22]: 80
- Plant response rating, Barley [12, 30]: 0
- Plant response rating, Barley [12, 20]: 5
- Barley plant response rating (0 to 100 scale) [12, 31]: 5
- Plant response rating, Barley [12, 22]: 15
